{"source": "paper PMC7204872", "about": "“The Biosynthesis of the Benzoxazole in Nataxazole Proceeds via an Unstable Ester and has Synthetic Utility” (Angewandte Chemie (International Ed. in English), 2020)", "key": {"[1]": {"target": "T1, NatL2 (Streptomyces sp. Tu 6176, UniProt A0A022MRT4)", "T1 construct": "N-terminal hexahistidine-tagged, expressed in E. coli; homodimer, structural Zn2+; residues 5-436 traced (C-terminal extension 405-436)", "T1 sequence (A0A022MRT4 1-436)": "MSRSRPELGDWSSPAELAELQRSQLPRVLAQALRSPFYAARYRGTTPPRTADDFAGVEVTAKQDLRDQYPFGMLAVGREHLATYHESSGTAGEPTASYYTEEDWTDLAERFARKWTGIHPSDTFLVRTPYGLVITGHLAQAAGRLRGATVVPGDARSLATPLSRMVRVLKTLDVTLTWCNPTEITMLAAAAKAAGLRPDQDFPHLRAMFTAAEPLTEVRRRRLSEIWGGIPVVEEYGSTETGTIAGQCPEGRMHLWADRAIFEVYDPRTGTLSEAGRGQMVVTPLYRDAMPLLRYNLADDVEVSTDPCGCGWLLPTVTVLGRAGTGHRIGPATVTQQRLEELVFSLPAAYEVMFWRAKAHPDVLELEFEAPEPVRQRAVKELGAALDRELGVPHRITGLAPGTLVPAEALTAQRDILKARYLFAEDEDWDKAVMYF", "assay": "X-ray crystallography (soaked crystal)", "format": "binding"}, "[2]": {"target": "T1, NatL2", "assay": "X-ray crystallography, […] Å", "format": "binding", "conditions": "crystallised in the presence of ATP; density modelled as AMP; Lys418 from other monomer"}}}
{"molecule": "Nc1ncnc2c1ncn2[C@@H]1O[C@H](COP(=O)(O)OP(=O)(O)NP(=O)(O)O)[C@@H](O)[C@H]1O", "note": "[AMPPNP]", "values": [{"measurement": "X-ray crystallography (soaked crystal)", "setting": "[1]; nucleotide site, binary complex and ternary with 3-HAA, no Mg2+ density", "result": "These crystals were soaked with AMPPNP and the resulting complex was essentially identical"}]}
{"molecule": "Nc1ncnc2c1ncn2[C@@H]1O[C@H](COP(=O)(O)O)[C@@H](O)[C@H]1O", "note": "[AMP]", "values": [{"measurement": "X-ray crystallography, 1.9 Å", "setting": "[2]", "result": "Residual electron density in both monomers was best modelled as AMP not ATP"}]}
{"molecule": "O=C(O)c1ccccc1O", "note": "[SA]", "values": [{"measurement": "X-ray crystallography (soaked crystal)", "setting": "[1]; soak of AMP:3-HAA crystals, two SA molecules in subunit A, no AMP, SA1 in 3-HAA1 pocket, SA2 in second substrate pocket, not turned over", "result": "In subunit A, two molecules of SA are bound but no AMP"}]}
